{
  "source": "paper PMC6796870",
  "about": "“A two-step lineage reprogramming strategy to generate functionally competent human hepatocytes from fibroblasts” (Cell Research, 2019)",
  "key": {"[1]": {"settings": "Table S9; ref 1,2 (Chen, M. et al. 2011); cited from earlier work"}, "hiHeps [2]": {"system": "hiHeps", "experiment": "Toxicity assay (TC50, 24 h, minimum of four viability parameters) in hiHeps", "settings": "concentration giving 50% reduction of cell viability, values rounded for ease of use"}, "HBV": {"system": "HBV", "experiment": "HBV infection of hiHeps, antiviral drug response", "assay_type": "cell-based, hepatitis B virus", "settings": "HBV-infected hiHeps; for HBV-DNA / HBV-RNA / HBV-proteins: 36 days, LAM 1 μM, ETV 0.5 μM during and after infection"}, "hiHeps [3]": {"system": "hiHeps"}, "hiHeps [4]": {"system": "hiHeps", "settings": "human"}, "hiHeps [5]": {"system": "hiHeps", "assay_type": "cell-based, human", "experimental": "The correlation between groups was evaluated by the Pearson correlation coefficient (r). b Time- and dose-dependent chronic toxicity of troglitazone in hiHeps. Mitochondrial activities were normalized to DMSO-treated cultures at corresponding day. n = 6. c Fluorescence evaluation of the pathological effects of DILI in hiHeps. Steatosis (up) and phospholipidosis (down) were evaluated in hiHeps after exposure to steatosis-causing compounds and phospholipidosis-causing compounds, respectively. Rifampin (non-steatosis/phospholipidosis-causing drug) or DMSO treatment were set as controls. For all compounds, images were captured at the concentration of 80% TC50. For all measurements, ‘n’ represents the number of biological replicates. The scale bars represent 50 μm. Data are presented as mean ± SEM"}, "IFN-stimulated genes": {"system": "IFN-stimulated genes", "experiment": "Expression of IFN-stimulated genes in hiHeps", "assay_type": "cell-based, human", "settings": "IFN-α treatment"}},
  "note": "Counter-ions that a name gives are not always drawn. Like-named read-outs stand apart in the source and are kept apart here.",
  "data": [
    {"molecule": "CC(=O)O[C@@]12CO[C@@H]1C[C@H](O)[C@@]1(C)C(=O)[C@H](O)C3=C(C)[C@@H](OC(=O)[C@H](O)[C@@H](NC(=O)OC(C)(C)C)c4ccccc4)C[C@@](O)([C@@H](OC(=O)c4ccccc4)[C@H]21)C3(C)C", "note": "[Docetaxel]", "values": [
      {"measurement": "Label", "setting": "[1]", "value": "DILI concern by FDA"}
    ]},
    {"molecule": "CCN(CC)CCNC(=O)c1c(C)[nH]c(/C=C2\\C(=O)Nc3ccc(F)cc32)c1C", "note": "[Sunitinib]", "values": [
      {"measurement": "Label", "setting": "[1]", "value": "DILI concern by FDA"}
    ]},
    {"molecule": "CCCCc1oc2ccccc2c1C(=O)c1cc(I)c(OCCN(CC)CC)c(I)c1", "note": "[amiodarone]", "values": [
      {"measurement": "TC50", "setting": "hiHeps [2]", "value": "~30", "unit": "µM"}
    ]},
    {"molecule": "CN(C)CCCN1c2ccccc2Sc2ccc(Cl)cc21", "note": "[chlorpromazine]", "values": [
      {"measurement": "TC50", "setting": "hiHeps [2]", "value": "≈ 25 μM"}
    ]},
    {"molecule": "C=C1[C@H](CO)[C@@H](O)C[C@@H]1n1cnc2c(=O)[nH]c(N)nc21", "note": "[entecavir]", "values": [
      {"measurement": "HBV-DNA", "setting": "HBV", "value": "greatly inhibited"},
      {"measurement": "HBV-RNA", "setting": "HBV", "value": "moderate effect"},
      {"measurement": "HBV-proteins", "setting": "HBV", "value": "moderate effect"}
    ]},
    {"molecule": "CC(C)C(=O)Nc1ccc([N+](=O)[O-])c(C(F)(F)F)c1", "note": "[flutamide]", "values": [
      {"measurement": "Toxicity after treatment with CYP3A4 inducer (rifampin)", "setting": "hiHeps [3]", "value": "increased"},
      {"measurement": "DDI effects on toxicity (rifampin, rifampin + ketoconazole)", "setting": "HepG2 cells", "value": "not detected"}
    ]},
    {"molecule": "Nc1ccn([C@@H]2CS[C@H](CO)O2)c(=O)n1", "note": "[lamivudine]", "values": [
      {"measurement": "HBV-DNA", "setting": "HBV", "value": "greatly inhibited"},
      {"measurement": "HBV-RNA", "setting": "HBV", "value": "moderate effect"},
      {"measurement": "HBV-proteins", "setting": "HBV", "value": "moderate effect"}
    ]},
    {"molecule": "CO[C@H]1/C=C/O[C@@]2(C)Oc3c(C)c(O)c4c(O)c(c(/C=N/N5CCN(C)CC5)c(O)c4c3C2=O)NC(=O)/C(C)=C\\C=C\\[C@H](C)[C@H](O)[C@@H](C)[C@@H](O)[C@@H](C)[C@H](OC(C)=O)[C@@H]1C", "note": "[rifampin]", "values": [
      {"measurement": "TC50", "setting": "hiHeps [2]", "value": "~100", "unit": "µM"}
    ]},
    {"molecule": "CN(C)[C@@H]1C(O)=C(C(N)=O)C(=O)[C@@]2(O)C(O)=C3C(=O)c4c(O)cccc4[C@@](C)(O)[C@H]3C[C@@H]12", "note": "[tetracycline hydrochloride]", "values": [
      {"measurement": "TC50", "setting": "hiHeps [4]", "value": "~400", "unit": "µM"}
    ]},
    {"molecule": "Cc1c(C)c2c(c(C)c1O)CCC(C)(COc1ccc(CC3SC(=O)NC3=O)cc1)O2", "note": "(centres unmarked) [troglitazone]", "values": [
      {"measurement": "Chronic toxicity", "setting": "hiHeps [5]", "value": "extensive cell death"}
    ]},
    {"molecule": "aflatoxin B1", "values": [
      {"measurement": "Toxicity after rifampin plus CYP3A4 inhibitor (ketoconazole)", "setting": "hiHeps [3]", "value": "rescued"},
      {"measurement": "Toxicity after treatment with CYP3A4 inducer (rifampin)", "setting": "hiHeps [3]", "value": "increased"},
      {"measurement": "DDI effects on toxicity (rifampin, rifampin + ketoconazole)", "setting": "HepG2 cells", "value": "not detected"}
    ]},
    {"molecule": "interferon-alpha", "values": [
      {"measurement": "All major HBV markers (HBV-DNA, HBV-RNA, HBV-proteins)", "setting": "HBV; 1000 U/mL after infection", "value": "inhibitory effect"},
      {"measurement": "Expression of IFN-stimulated genes", "setting": "IFN-stimulated genes", "value": "upregulation"}
    ]}
  ]
}
